Experiments:
[1] = biological target: Dual specificity protein kinase CLK1 (Mus musculus, UniProt P22518); test: Inhibition of GST-fused mouse recombinant CLK1 expressed in Escherichia coli using GRSRSRSRSRSR peptide as substrate incubated for 30 mins in presence of ATP by scintillation counting method
[2] = tested on: U2OS; test: Induction of PI3K/mTor-dependent autophagy in human U2OS cells assessed as number of LC3 foci per cell at 10 uM measured after 4 hrs; type: cell-based; conditions: filed as activator
[3] = biological target: Dual specificity protein kinase CLK3 (Mus musculus, UniProt O35492); test: Inhibition of GST-fused mouse recombinant CLK3 expressed in Escherichia coli using GRSRSRSRSRSR peptide as substrate incubated for 30 mins in presence of ATP by scintillation counting method
Dual specificity protein kinase CLK3, sequence (O35492 whole entry, the tested form may be a part): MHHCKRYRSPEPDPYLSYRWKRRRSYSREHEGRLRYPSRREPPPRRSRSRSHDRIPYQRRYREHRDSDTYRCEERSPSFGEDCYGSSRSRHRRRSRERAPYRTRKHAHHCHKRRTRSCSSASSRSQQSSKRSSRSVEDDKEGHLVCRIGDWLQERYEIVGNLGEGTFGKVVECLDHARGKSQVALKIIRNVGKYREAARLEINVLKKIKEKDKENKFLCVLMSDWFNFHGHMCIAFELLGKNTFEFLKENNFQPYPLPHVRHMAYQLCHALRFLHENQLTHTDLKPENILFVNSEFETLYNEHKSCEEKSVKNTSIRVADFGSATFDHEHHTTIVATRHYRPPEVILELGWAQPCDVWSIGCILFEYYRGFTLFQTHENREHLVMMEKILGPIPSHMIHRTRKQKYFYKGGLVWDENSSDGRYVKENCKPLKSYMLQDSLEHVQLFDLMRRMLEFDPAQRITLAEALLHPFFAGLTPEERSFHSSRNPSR

[4] = biological target: Glycogen synthase kinase-3 (Sus scrofa, UniProt B2LUN4+I6LNT8); test: Inhibition of porcine brain GSK-3alpha/beta using YRRAAVPPSPSLSRHSSPHQpSEDEEE as substrate incubated for 30 mins in presence of ATP by scintillation counting method; type: tissue-based
[5] = biological target: Casein kinase 2 (Homo sapiens, UniProt P67870+P68400+P19784+Q8NEV1); test: Inhibition of human recombinant CK2 using RRRDDDSDDD peptide as substrate incubated for 30 mins in presence of ATP by scintillation counting method; type: protein assay
[6] = biological target: Dual specificity protein kinase CLK2 (Mus musculus, UniProt O35491); test: Inhibition of mouse recombinant GST-fused CLK2 expressed in Escherichia coli using GRSRSRSRSRSR peptide as substrate incubated for 30 mins in presence of ATP by scintillation counting method
Dual specificity protein kinase CLK2, sequence (O35491 whole entry, the tested form may be a part): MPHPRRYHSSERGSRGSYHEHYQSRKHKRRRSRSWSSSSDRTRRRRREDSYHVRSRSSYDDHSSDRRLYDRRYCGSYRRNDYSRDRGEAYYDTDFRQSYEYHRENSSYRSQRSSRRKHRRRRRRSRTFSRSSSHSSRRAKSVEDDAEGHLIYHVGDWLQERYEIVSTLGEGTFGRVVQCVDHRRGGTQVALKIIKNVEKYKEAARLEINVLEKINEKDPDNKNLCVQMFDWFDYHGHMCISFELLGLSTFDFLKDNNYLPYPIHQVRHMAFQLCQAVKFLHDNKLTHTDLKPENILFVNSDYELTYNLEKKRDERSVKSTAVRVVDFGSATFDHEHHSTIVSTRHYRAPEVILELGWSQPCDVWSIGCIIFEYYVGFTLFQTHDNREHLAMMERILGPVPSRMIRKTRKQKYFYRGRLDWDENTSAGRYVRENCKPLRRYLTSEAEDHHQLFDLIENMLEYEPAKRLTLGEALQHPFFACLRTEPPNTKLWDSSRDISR

[7] = tested on: HT-22; test: Modulation of CLK1 pre-mRNA splicing in mouse HT-22 cells assessed as inclusion of CLK1 exon 4 by measuring change in threshold cycle at 10 uM measured after 4 hrs by real time PCR analysis; type: cell-based; conditions: filed as modulator
[8] = biological target: T1, Dual specificity tyrosine-phosphorylation-regulated kinase 1A (Homo sapiens, UniProt Q13627); test: Inhibition of DYRK1A in human SH-SY5Y overexpressing Tau4R cells assessed as phosphorylated Tau Thr212 residue level at 10 uM incubated for 6 hrs by western blot analysis relative to control; type: cell-based
[9] = biological target: T2, Dual specificity tyrosine-phosphorylation-regulated kinase 2 (Homo sapiens, UniProt Q92630); test: Inhibition of GST-fused human recombinant DYRK2 expressed in Escherichia coli using GRSRSRSRSRSR peptide as substrate incubated for 30 mins in presence of ATP by scintillation counting method
T2 sequence (Q92630 whole entry): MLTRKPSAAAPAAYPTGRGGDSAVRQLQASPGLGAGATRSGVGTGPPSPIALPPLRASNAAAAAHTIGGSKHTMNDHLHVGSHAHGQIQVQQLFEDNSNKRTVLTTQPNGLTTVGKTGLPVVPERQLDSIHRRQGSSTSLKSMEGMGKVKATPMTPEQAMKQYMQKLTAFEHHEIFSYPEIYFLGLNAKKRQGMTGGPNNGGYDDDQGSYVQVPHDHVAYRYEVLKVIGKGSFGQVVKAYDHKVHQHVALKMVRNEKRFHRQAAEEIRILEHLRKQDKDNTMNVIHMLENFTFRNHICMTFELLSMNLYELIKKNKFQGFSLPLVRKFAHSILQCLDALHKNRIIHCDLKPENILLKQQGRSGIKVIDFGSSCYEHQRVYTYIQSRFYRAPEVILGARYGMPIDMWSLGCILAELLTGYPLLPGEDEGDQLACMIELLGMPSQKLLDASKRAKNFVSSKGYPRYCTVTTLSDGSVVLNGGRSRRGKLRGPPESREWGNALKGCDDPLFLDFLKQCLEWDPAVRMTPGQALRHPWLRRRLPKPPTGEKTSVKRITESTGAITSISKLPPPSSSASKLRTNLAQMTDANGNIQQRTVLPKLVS

[10] = Neurotoxicity against mouse HT-22 cells assessed as cell survival treated for 24 hrs by MTS assay; type: toxicity, cell-based
[11] = biological target: Serine/threonine-protein kinase pim-1 (Homo sapiens, UniProt P11309); test: Inhibition of human recombinant Pim1 expressed in Escherichia coli using histone H1 as substrate incubated for 30 mins in presence of ATP by scintillation counting method
Serine/threonine-protein kinase pim-1, sequence (P11309 whole entry, the tested form may be a part): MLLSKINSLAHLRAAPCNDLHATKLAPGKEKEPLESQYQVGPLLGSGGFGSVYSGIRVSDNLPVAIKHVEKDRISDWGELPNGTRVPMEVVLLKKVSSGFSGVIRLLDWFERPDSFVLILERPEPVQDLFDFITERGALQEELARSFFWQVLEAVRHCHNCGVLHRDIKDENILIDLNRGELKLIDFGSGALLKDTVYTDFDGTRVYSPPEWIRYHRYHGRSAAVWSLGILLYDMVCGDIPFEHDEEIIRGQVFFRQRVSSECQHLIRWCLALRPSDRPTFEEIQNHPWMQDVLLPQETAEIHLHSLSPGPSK

[12] = biological target: T1, Dual specificity tyrosine-phosphorylation-regulated kinase 1A; test: Inhibition of GST-fused human recombinant DYRK1A expressed in Escherichia coli using GRSRSRSRSRSR peptide as substrate incubated for 30 mins in presence of ATP by scintillation counting method
[13] = biological target: Dual specificity protein kinase CLK4 (Mus musculus, UniProt O35493); test: Inhibition of GST-fused mouse recombinant CLK4 expressed in Escherichia coli using GRSRSRSRSRSR peptide as substrate incubated for 30 mins in presence of ATP by scintillation counting method
Dual specificity protein kinase CLK4, sequence (O35493 whole entry, the tested form may be a part): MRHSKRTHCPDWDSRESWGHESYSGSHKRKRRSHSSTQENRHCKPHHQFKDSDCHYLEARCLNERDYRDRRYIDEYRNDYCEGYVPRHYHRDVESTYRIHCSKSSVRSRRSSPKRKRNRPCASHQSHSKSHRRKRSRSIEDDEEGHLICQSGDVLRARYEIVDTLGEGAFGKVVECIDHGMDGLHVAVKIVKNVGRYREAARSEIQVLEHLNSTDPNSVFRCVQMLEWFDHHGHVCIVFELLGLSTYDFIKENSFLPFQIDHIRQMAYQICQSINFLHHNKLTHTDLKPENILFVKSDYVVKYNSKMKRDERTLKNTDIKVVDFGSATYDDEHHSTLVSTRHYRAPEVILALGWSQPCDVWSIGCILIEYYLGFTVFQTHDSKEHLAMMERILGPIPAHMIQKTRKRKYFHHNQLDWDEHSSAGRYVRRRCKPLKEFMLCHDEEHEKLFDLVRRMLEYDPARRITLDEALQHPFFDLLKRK

[14] = Neurotoxicity against mouse HT-22 cells assessed as cell survival at 20 uM treated for 24 hrs by MTS assay; type: toxicity, cell-based; conditions: ht-22, 24 h
[15] = biological target: Dual specificity tyrosine-phosphorylation-regulated kinase 1B (Homo sapiens, UniProt Q9Y463)
Dual specificity tyrosine-phosphorylation-regulated kinase 1B, sequence (Q9Y463 whole entry, the tested form may be a part): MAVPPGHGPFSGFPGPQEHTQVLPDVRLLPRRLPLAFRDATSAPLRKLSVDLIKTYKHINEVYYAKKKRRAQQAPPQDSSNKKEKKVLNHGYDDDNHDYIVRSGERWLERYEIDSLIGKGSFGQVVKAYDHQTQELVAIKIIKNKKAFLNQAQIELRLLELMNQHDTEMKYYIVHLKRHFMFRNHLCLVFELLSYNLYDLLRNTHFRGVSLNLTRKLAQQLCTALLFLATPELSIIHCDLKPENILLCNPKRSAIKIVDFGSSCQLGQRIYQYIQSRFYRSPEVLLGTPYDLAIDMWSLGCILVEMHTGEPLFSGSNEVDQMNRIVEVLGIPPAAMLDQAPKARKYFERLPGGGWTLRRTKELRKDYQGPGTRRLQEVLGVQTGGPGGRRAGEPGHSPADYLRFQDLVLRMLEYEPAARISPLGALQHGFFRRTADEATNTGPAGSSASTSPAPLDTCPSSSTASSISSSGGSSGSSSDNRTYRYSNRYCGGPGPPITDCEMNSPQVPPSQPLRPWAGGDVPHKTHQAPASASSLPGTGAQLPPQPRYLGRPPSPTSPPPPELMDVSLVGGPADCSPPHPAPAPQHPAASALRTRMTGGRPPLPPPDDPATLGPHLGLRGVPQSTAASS

[16] = biological target: T3, Dual specificity tyrosine-phosphorylation-regulated kinase 3 (Homo sapiens, UniProt O43781); test: Inhibition of GST-fused human recombinant DYRK3 expressed in Escherichia coli using GRSRSRSRSRSR peptide as substrate incubated for 30 mins in presence of ATP by scintillation counting method
T3 sequence (O43781 whole entry): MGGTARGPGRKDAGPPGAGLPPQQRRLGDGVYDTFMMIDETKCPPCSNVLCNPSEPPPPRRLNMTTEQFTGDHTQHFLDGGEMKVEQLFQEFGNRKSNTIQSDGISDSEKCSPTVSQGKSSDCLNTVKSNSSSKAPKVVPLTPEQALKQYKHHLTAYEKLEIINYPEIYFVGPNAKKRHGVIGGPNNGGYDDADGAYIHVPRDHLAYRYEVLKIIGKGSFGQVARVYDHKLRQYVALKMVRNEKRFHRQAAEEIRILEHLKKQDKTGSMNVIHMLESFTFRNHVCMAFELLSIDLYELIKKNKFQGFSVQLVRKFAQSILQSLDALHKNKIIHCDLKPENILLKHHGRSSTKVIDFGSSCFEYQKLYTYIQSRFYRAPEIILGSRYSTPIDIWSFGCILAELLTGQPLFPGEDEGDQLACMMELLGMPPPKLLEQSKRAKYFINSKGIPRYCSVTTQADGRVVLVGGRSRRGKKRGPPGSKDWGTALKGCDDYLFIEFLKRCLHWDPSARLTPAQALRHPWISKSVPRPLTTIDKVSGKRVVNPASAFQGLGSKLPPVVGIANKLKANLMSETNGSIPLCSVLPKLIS

[17] = biological target: T4, Cannabinoid receptor 1 (Homo sapiens, UniProt P21554); test: Antagonist activity at CP-55940-activated CB1 receptor (unknown origin) at 10 uM by beta-arrestin assay relative to control; type: functional; set-up: scale not given: the % may be the effect or the level left
T4 sequence (P21554 whole entry): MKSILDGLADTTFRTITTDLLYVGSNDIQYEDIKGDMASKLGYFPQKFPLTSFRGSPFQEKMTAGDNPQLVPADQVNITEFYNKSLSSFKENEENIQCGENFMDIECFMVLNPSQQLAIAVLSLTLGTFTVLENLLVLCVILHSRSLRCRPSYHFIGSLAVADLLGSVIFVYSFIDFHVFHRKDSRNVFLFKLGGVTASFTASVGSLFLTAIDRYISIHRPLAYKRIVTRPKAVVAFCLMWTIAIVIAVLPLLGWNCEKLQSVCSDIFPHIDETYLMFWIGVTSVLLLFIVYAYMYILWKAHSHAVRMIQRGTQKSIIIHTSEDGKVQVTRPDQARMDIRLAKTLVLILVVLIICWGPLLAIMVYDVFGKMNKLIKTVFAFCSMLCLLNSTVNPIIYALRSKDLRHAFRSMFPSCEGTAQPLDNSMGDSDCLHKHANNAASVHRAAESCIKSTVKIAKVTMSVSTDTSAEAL

[18] = tested on: HT-22; test: Neuroprotective activity against glutamate-induced cell death in mouse HT-22 cells treated for 24 hrs by MTS assay; type: functional, cell-based; conditions: HT-22, 24 h
[19] = biological target: T4, Cannabinoid receptor 1; test: Antagonist activity at CP-55940-activated CB1 receptor (unknown origin) by beta-arrestin assay; type: functional

Dual specificity protein kinase CLK1, sequence (P22518 whole entry, the tested form may be a part): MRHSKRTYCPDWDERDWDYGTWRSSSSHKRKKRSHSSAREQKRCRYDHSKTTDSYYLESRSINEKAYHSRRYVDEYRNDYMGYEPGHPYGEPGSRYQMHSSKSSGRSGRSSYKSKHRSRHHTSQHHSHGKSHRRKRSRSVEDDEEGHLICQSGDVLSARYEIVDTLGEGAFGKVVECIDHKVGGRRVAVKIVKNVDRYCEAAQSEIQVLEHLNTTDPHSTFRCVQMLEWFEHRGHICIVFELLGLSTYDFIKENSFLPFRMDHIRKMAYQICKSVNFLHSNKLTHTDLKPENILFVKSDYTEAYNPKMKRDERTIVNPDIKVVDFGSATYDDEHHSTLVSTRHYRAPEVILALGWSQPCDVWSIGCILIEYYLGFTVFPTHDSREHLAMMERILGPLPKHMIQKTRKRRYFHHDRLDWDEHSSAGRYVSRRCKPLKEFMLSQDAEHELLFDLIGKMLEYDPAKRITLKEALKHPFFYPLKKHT

| SMILES | IC50 [1] [nM] | Activity [2] | IC50 [3] [nM] | IC50 [4] [nM] | IC50 [5] [nM] | IC50 [6] [nM] | deltaCT [7] | inhibition [8] [%] | IC50 [9] [nM] | EC50 at 24 h [10] [nM] | IC50 [11] [nM] | IC50 [12] [nM] | IC50 [13] [nM] | Activity [14] | IC50 [15] [nM] | IC50 [16] [nM] | Activity [17] [%] | EC50 [18] [nM] | other results |
| --- | --- | --- | --- | --- | --- | --- | --- | --- | --- | --- | --- | --- | --- | --- | --- | --- | --- | --- | --- |
| CCCSC1=N/C(=C\c2ccc3c(c2)OCO3)C(=O)N1 | 34 | 7.3 | 3100 | 1400 | 1700 | 110 | 2.48 | -2.4 | 37 | > 20000 | 950 | 40 | 27 | Non-Toxic | 90 | 510 | -2.6 |  |  |
| NC1=N/C(=C\c2ccc3c(c2)OCO3)C(=O)N1 | 41 | 5 | 950 | 2100 | 930 | 180 | 3.02 |  | 32 | > 20000 | 320 | 35 | 37 |  | 190 | 240 | -2.2 |  |  |
| O=C1NC(Nc2ccc(-c3ccccc3)cc2)=N/C1=C\c1ccc2c(c1)OCO2 | > 10000 | 6.8 |  |  |  | > 10000 |  | -5.1 | 4200 |  |  | 8100 | 5200 | Non-Toxic | > 10000 |  | 36.8 | > 20000 |  |
| O=C1NC(Nc2ccccc2)=N/C1=C\c1cccc(F)c1 |  | 5.9 |  |  |  |  |  |  |  |  | > 10000 | > 10000 |  |  |  |  |  | 3500 | IC50 [19]: 916 nM; IC50 at 24 h [10]: > 20000 nM; Activity ([17]; filed as antagonist): 79.5% |
| O=C1NC(Nc2ccc(O)cc2)=N/C1=C\c1ccc2c(c1)OCO2 | 22 | 12 | 280 | 530 | 140 | 83 | 7.91 |  | 11 | > 20000 | 1100 | 13 | 18 |  | 24 | 140 | -25.5 | 9000 |  |
| CCSC1=N/C(=C\c2ccc3c(c2)OCO3)C(=O)N1 | 29 | 5.5 | 1400 | 900 | 600 | 120 | 0.57 |  | 32 | > 20000 | 340 | 33 | 23 | Non-Toxic | 72 | 160 | -7.5 |  |  |
| CCCNC1=N/C(=C\c2ccc3c(c2)OCO3)C(=O)N1CCC | 3000 | 5 | > 10000 | > 10000 |  | ≥ 10000 | -0.32 | -1.5 | > 10000 |  |  | > 10000 | 2300 | Non-Toxic | > 10000 | > 10000 | -13.4 |  |  |
| CCCNC1=N/C(=C\c2ccc3c(c2)OCO3)C(=O)N1c1ccccc1 | 2000 | 4.7 | 9500 | > 10000 |  | 2500 | -0.05 |  | 7200 | > 20000 |  | > 10000 | 1200 |  | > 10000 | 7000 | -17.9 |  |  |
| CCCNC1=N/C(=C\c2ccc3c(c2)OCO3)C(=O)N1 | 70 | 5.1 | 3000 | 4100 | 1400 | 550 | 5.11 |  | 100 | > 20000 | 1200 | 120 | 61 |  | 310 | 650 | -14.8 |  |  |
| CN1C(=O)/C(=C/c2ccc3c(c2)OCO3)N=C1N [LEUCETTAMINE B] | 140 | 4.3 | 6000 | 5000 |  | 940 | 1.14 |  | 430 |  | > 10000 |  |  | Non-Toxic |  | 1300 | 9.5 |  | IC50 [19]: > 10000 nM |
| CCCCOc1ccc(/C=C2\N=C(Nc3ccccc3)NC2=O)cc1OC |  | 7.6 |  |  |  |  |  | -8 |  |  |  |  |  | Non-Toxic |  |  |  | 2450 | Activity ([17]; filed as antagonist): 54.3% |
| CCCCCCc1ccc(NC2=N/C(=C\c3ccc(O)c(OC)c3)C(=O)N2)cc1 | > 10000 | 7.6 |  |  |  |  |  |  | ≥ 10000 | > 20000 | > 10000 | ≥ 10000 | > 10000 |  | ≥ 10000 | > 10000 |  | 270 | IC50 [19]: 2000 nM; Activity ([17]; filed as antagonist): 48.1% |
| CNC1=N/C(=C\c2ccc3c(c2)OCO3)C(=O)N1 | 140 | 4.9 | 1200 | 6200 | 1800 | 530 | 1 |  | 130 | > 20000 | 1200 | 160 | 94 | Non-Toxic | 500 | 480 | -14.7 |  |  |
| CCNC1=N/C(=C\c2ccc3c(c2)OCO3)C(=O)N1 | 65 | 5.6 | 2300 | 2400 | 410 | 380 | 2.64 | -6 | 190 |  | 1200 | 140 | 60 | Non-Toxic | 480 | 470 | -40.4 |  |  |

Source: ChEMBL document CHEMBL5126517, “Structure-Activity Relationship in the Leucettine Family of Kinase Inhibitors” (J Med Chem, 2022)
